Laboratory results: US8884061B2, “Compositions and methods of use of electron transport system inhibitors” (priority 2006, dated 2014)
In brackets after ≈: the same amount, converted by molar mass. Like-named read-outs stand apart in the source and are kept apart here.

What was measured:
Assay in all cases: MIC, other bacteria (Table 3)
S. aureus ATCC 29213 = format: cell-based
[1] = tested on: S. aureus ATCC 43300 (MRSA); format: cell-based; conditions: inoculum size 10^6 CFU/ml
VRSA 2441-T0041 = format: cell-based, S. aureus
VRSA 2441-T0044 = format: cell-based, S. aureus
MRSA 2441-05104 = format: cell-based, S. aureus; conditions: inoculum size 10^6 CFU/ml
MRSA 2441-05112 = format: cell-based, S. aureus; conditions: inoculum size 10^6 CFU/ml
MRSA 2441-05129 = format: cell-based, S. aureus; conditions: inoculum size 10^6 CFU/ml
MRSA 2441-05223 = format: cell-based, S. aureus; conditions: inoculum size 10^6 CFU/ml
MRSA 2441-05254 = format: cell-based, S. aureus; conditions: inoculum size 10^6 CFU/ml
MRSA 2441-05262 = format: cell-based, S. aureus; conditions: inoculum size 10^6 CFU/ml
[2] = tested on: S. epidermidis ATCC 12228; format: cell-based
MRSE 2442-05030 = format: cell-based, S. epidermidis; conditions: inoculum size 10^6 CFU/ml
MRSE 2442-05047 = format: cell-based, S. epidermidis; conditions: inoculum size 10^6 CFU/ml
MRSE 2442-05053 = format: cell-based, S. epidermidis; conditions: inoculum size 10^6 CFU/ml
MRSE 2442-05060 = format: cell-based, S. epidermidis; conditions: inoculum size 10^6 CFU/ml
MRSE 2442-05110 = format: cell-based, S. epidermidis; conditions: inoculum size 10^6 CFU/ml
MRSE 2442-05118 = format: cell-based, S. epidermidis; conditions: inoculum size 10^6 CFU/ml
E. faecalis ATCC 29212 = format: cell-based
[3] = tested on: E. faecalis ATCC 51299 (VRE); format: cell-based; conditions: low level VCM-resistant, Van B, inoculum size 10^6 CFU/ml
[4] = tested on: E. faecalis NCTC 12201 (VRE); format: cell-based; conditions: high level VCM-resistant, Van A, inoculum size 10^6 CFU/ml
E. faecium ATCC 49224 = format: cell-based; conditions: E. faecium ATCC 49224, GM-resistant, inoculum size 10^6 CFU/ml
[5] = tested on: E. faecium NCTC 12203 (VRE); format: cell-based; conditions: high level VCM-resistant, Van A, inoculum size 10^6 CFU/ml
E. coli ATCC 25922 = format: cell-based
K. pneumoniae ATCC 27736 = format: cell-based
P. mirabilis ATCC 4630 = format: cell-based
S. marsascens ATCC 14756 = format: cell-based; conditions: inoculum size 10^6 CFU/ml
P. aeruginosa ATCC 27853 = format: cell-based
[6] = Staphylococcus aureus, read-out: MIC
[7] = Staphylococcus epidermidis, read-out: MIC
[8] = Enterococcus faecalis, read-out: MIC

**Q.** For `COc1cccc(OC)c1C(=O)N[C@@H]1C(=O)N2[C@@H]1SC(C)(C)[C@@H]2C(=O)O` [DMPPC, reference compound], which “MIC” value (S. aureus ATCC 29213; inoculum size 10^6 CFU/ml) is on record?
**A.** 1.56 µg/mL (≈ 4.1 µM)

**Q.** What about the “MIC” value [1] of the same compound?
**A.** 3.13 µg/mL (≈ 8.23 µM)

**Q.** And the “MIC” value (VRSA 2441-T0041; VRSA 2441-T0041, low level VCM-resistant, inoculum size 10^6 CFU/ml)?
**A.** >400 µg/mL

**Q.** And the “MIC” value (VRSA 2441-T0044; VRSA 2441-T0044, low level VCM-resistant, inoculum size 10^6 CFU/ml)?
**A.** >400 µg/mL

**Q.** And the “MIC” value (MRSA 2441-05104)?
**A.** 100 µg/mL (≈ 263 µM)

**Q.** And the “MIC” value (MRSA 2441-05112)?
**A.** 400 µg/mL (≈ 1050 µM)

**Q.** And the “MIC” value (MRSA 2441-05129)?
**A.** >400 µg/mL

**Q.** And the “MIC” value (MRSA 2441-05223)?
**A.** 125 µg/mL (≈ 329 µM)

**Q.** And the “MIC” value (MRSA 2441-05254)?
**A.** >400 µg/mL

**Q.** What about the “MIC” value (MRSA 2441-05262) of the same compound?
**A.** >400 µg/mL

**Q.** And the “MIC” value ([2]; inoculum size 10^6 CFU/ml)?
**A.** 1.56 µg/mL (≈ 4.1 µM)

**Q.** What about the “MIC” value (MRSE 2442-05030) of the same compound?
**A.** 1.56 µg/mL (≈ 4.1 µM)

**Q.** And the “MIC” value (MRSE 2442-05047)?
**A.** 400 µg/mL (≈ 1050 µM)

**Q.** What about the “MIC” value (MRSE 2442-05053) of the same compound?
**A.** 3.13 µg/mL (≈ 8.23 µM)

**Q.** And the “MIC” value (MRSE 2442-05060)?
**A.** 200 µg/mL (≈ 526 µM)

**Q.** And the “MIC” value (MRSE 2442-05110)?
**A.** 3.13 µg/mL (≈ 8.23 µM)

**Q.** And the “MIC” value (MRSE 2442-05118)?
**A.** 200 µg/mL (≈ 526 µM)

**Q.** And the “MIC” value (E. faecalis ATCC 29212; inoculum size 10^6 CFU/ml)?
**A.** 25 µg/mL (≈ 65.7 µM)

**Q.** What about the “MIC” value [3] of the same compound?
**A.** 50 µg/mL (≈ 131 µM)

**Q.** And the “MIC” value [4]?
**A.** 100 µg/mL (≈ 263 µM)

**Q.** And the “MIC” value (E. faecium ATCC 49224)?
**A.** >400 µg/mL

**Q.** And the “MIC” value [5]?
**A.** >400 µg/mL

**Q.** What about the “MIC” value (E. coli ATCC 25922; inoculum size 10^6 CFU/ml) of the same compound?
**A.** >400 µg/mL

**Q.** What about the “MIC” value (K. pneumoniae ATCC 27736; inoculum size 10^6 CFU/ml) of the same compound?
**A.** >400 µg/mL

**Q.** And the “MIC” value (P. mirabilis ATCC 4630; inoculum size 10^6 CFU/ml)?
**A.** >400 µg/mL

**Q.** What about the “MIC” value (S. marsascens ATCC 14756) of the same compound?
**A.** >400 µg/mL

**Q.** What about the “MIC” value (P. aeruginosa ATCC 27853; inoculum size 10^6 CFU/ml) of the same compound?
**A.** >400 µg/mL

**Q.** Which results are given for `CC1COc2c(N3CCN(C)CC3)c(F)cc3c(=O)c(C(=O)O)cn1c23` (stereo not drawn) [OFLX, ofloxacin, reference compound]?
**A.** MIC (S. aureus ATCC 29213; Staphylococcus aureus, ATCC29213, inoculum size 10^6 CFU/ml, read-out: MIC): 0.2 µg/mL (≈ 0.553 µM); MIC [1, 6]: 0.39 µg/mL (≈ 1.08 µM); MIC (VRSA 2441-T0041; Staphylococcus aureus, VRSA): 1.25 µg/mL (≈ 3.46 µM); MIC (VRSA 2441-T0044; Staphylococcus aureus, VRSA): 1.25 µg/mL (≈ 3.46 µM); MIC (MRSA 2441-05104; [6]): 25 µg/mL (≈ 69.2 µM); MIC (MRSA 2441-05112; [6]): 50 µg/mL (≈ 138 µM); MIC (MRSA 2441-05129; [6]): 1 µg/mL (≈ 2.77 µM); MIC (MRSA 2441-05223; [6]): 0.2 µg/mL (≈ 0.553 µM); MIC (MRSA 2441-05254; [6]): 50 µg/mL (≈ 138 µM); MIC (MRSA 2441-05262; [6]): 50 µg/mL (≈ 138 µM); MIC ([2]; Staphylococcus epidermidis, ATCC12228, inoculum size 10^6 CFU/ml, read-out: MIC): 0.2 µg/mL (≈ 0.553 µM); MIC (MRSE 2442-05030; [7]): 6.25 µg/mL (≈ 17.3 µM); MIC (MRSE 2442-05047; [7]): 6.25 µg/mL (≈ 17.3 µM); MIC (MRSE 2442-05053; [7]): 6.25 µg/mL (≈ 17.3 µM); MIC (MRSE 2442-05060; [7]): 6.25 µg/mL (≈ 17.3 µM); MIC (MRSE 2442-05110; [7]): 6.25 µg/mL (≈ 17.3 µM); MIC (MRSE 2442-05118; [7]): 6.25 µg/mL (≈ 17.3 µM); MIC (E. faecalis ATCC 29212; Enterococcus faecalis, ATCC29212, inoculum size 10^6 CFU/ml, read-out: MIC): 1.56 µg/mL (≈ 4.32 µM); MIC [3, 8]: 1.56 µg/mL (≈ 4.32 µM); MIC [4, 8]: 1.56 µg/mL (≈ 4.32 µM); MIC (E. faecium ATCC 49224; Enterococcus faecium, ATCC49224, read-out: MIC): 3.13 µg/mL (≈ 8.66 µM); MIC ([5]; Enterococcus faecium, read-out: MIC): 3.13 µg/mL (≈ 8.66 µM); MIC (E. coli ATCC 25922; Escherichia coli, ATCC25922, inoculum size 10^6 CFU/ml, read-out: MIC): 0.05 µg/mL (≈ 0.138 µM); MIC (K. pneumoniae ATCC 27736; Klebsiella pneumoniae, ATCC27736, inoculum size 10^6 CFU/ml, read-out: MIC): 0.2 µg/mL (≈ 0.553 µM); MIC (P. mirabilis ATCC 4630; Proteus mirabilis, ATCC4630, inoculum size 10^6 CFU/ml, read-out: MIC): 0.39 µg/mL (≈ 1.08 µM); MIC (S. marsascens ATCC 14756; read-out: MIC): 0.024 µg/mL (≈ 0.0664 µM); MIC (P. aeruginosa ATCC 27853; Pseudomonas aeruginosa, ATCC27853, inoculum size 10^6 CFU/ml, read-out: MIC): 3.13 µg/mL (≈ 8.66 µM)
